Source: patent US20060052345A1, “Quinazolinone compounds as calcilytics” (NPS Pharmaceuticals, Inc., priority 2002, published 2006)

Key:
[1] = Plasma levels of compound 17 after intravenous injection in normal rats (LC-MS/MS); assay type: in vivo, rat; settings: 3 or 10 μmol/kg intravenous injection, normal conscious male Sprague-Dawley rats, FIG. 1
Description: (§1) 2-(2-Hydroxy-phenyl)-3-phenethyl-3H-quinazolin-4-one (compound 17) (3 or 10 μmol/kg) or vehicle was administered by intravenous injection over about 15 seconds to normal conscious male Sprague-Dawley rats with chronic indwelling arterial and venous catheters. Arterial blood samples were collected immediately before, and at 1, 5, 10, and 30 min after the start of the injection for measurement of the levels of parathyroid hormone (PTH), ionized calcium (Ca^2+) and compound 17 in plasma. PTH was measured using a specific rat PTH (1-84) ELISA (Immutopics, San Clemente, Calif.) and compound 17 was quantified by an LC-MS/MS method. Positive ions were generated by turbo ionspray and were subsequently fragmented by collision-induced dissociation, so that compound 17 could be detected by selected-reaction monitoring.

[2] = system: ionized calcium (Ca^2+); assay: Plasma ionized calcium levels after intravenous injection in normal rats; assay type: in vivo, rat; settings: 3 or 10 μmol/kg intravenous injection, normal conscious male Sprague-Dawley rats, up to 30 min (not shown)
Description: as §1

[3] = system: parathyroid hormone (PTH); assay: Plasma PTH levels after intravenous injection in normal rats (rat PTH (1-84) ELISA); assay type: in vivo; settings: 3 or 10 μmol/kg intravenous injection, normal conscious male Sprague-Dawley rats, FIG. 2
Description: as §1

O=c1c2ccccc2nc(-c2ccccc2O)n1CCc1ccccc1 [compound 17, 2-(2-Hydroxy-phenyl)-3-phenethyl-3H-quinazolin-4-one]
course of plasma levels of compound after the maximum [1]: declined rapidly during the next 10-30 min
time after injection at which plasma levels of compound were maximal [1]: 1 min
changes in plasma Ca^2+ levels [2]: no consistent changes
effect on plasma PTH levels [3]: rapid, but transient dose-related increase
time after injection at which plasma PTH levels were maximal [3]: 1 min
time after injection by which plasma PTH levels had returned to pre-dose levels [3]: ≤ 10 min
